Experimental data taken from patent US8273774B2, “Phenoxypyridinylamide compounds” (AstraZeneca AB, priority 2008, dated 2012).
Structures can show the parent of a compound that is named as a salt.

Each compound was assayed against recombinant Human Phosphodiesterase B2 (PDE4B2) (Homo sapiens, UniProt Q07343) (assay: Human Phosphodiesterase B2 Radiometric Assay). Conditions: 0.1 μg/mL recombinant PDE4B2; preincubated at 30 C for 30 min; [3H]cyclic AMP 8 nM, stopped after 20 min; yttrium silicate SPA beads; read-out: PDE4B2 pIC50 (converted).
recombinant Human Phosphodiesterase B2 (PDE4B2), sequence (Q07343 1-564 isoform Q07343-2): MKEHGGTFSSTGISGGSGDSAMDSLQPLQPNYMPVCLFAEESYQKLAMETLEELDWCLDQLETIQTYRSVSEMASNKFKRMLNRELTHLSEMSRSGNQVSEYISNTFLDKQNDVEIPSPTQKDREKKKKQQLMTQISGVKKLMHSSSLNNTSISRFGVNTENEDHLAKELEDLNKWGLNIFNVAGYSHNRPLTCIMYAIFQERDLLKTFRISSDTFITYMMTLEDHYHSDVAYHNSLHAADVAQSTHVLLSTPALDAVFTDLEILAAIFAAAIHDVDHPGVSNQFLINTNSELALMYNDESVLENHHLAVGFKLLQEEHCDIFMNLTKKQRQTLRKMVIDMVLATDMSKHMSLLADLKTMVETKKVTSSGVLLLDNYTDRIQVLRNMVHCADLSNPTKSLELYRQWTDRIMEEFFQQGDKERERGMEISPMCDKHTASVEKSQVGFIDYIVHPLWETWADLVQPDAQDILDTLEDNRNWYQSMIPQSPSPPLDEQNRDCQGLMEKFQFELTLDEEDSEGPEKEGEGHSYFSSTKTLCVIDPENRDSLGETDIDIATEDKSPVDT
Format: biochemical
In short: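 SPA read-out: product 5′AMP binds yttrium silicate beads (added with 18 mM ZnSO4 after 20 min) in preference to [3H]cAMP substrate, given at 8 nM final.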

Structure (SMILES) | IC50 [nM]
Cc1cccc2nc(C(=O)N[C@H]3CC[C@@H](NC(=O)c4cc(F)cnc4Oc4cccc(-c5ccc(CCCN6CCNCC6)cc5)c4)CC3)cn12 [Example 93, N-((1s,4s)-4-(5-fluoro-2-(4′-(3-(piperazin-1-yl)propyl)biphenyl-3-yloxy)nicotinamido)cyclohexyl)-5-methylimidazo[1,2-a]pyridine-2-carboxamide] | 0.1
C[C@@H]1CN(CCCc2ccc(-c3cccc(Oc4ncc(F)cc4C(=O)N[C@H]4CC[C@@H](NC(=O)c5cn6c(n5)CCCC6)CC4)c3)cc2)C[C@H](C)N1 [Example 104, N-((1s,4s)-4-(2-(4′-(3-((3S,5R)-3,5-dimethylpiperazin-1-yl)propyl)biphenyl-3-yloxy)-5-fluoronicotinamido)cyclohexyl)-5,6,7,8-tetrahydroimidazo[1,2-a]pyridine-2-carboxamide] | 0.0316
Cc1nc(C(=O)N[C@H]2CC[C@@H](NC(=O)c3cc(F)cnc3Oc3cccc(-c4ccc(O)c(CN5C[C@@H](C)N[C@@H](C)C5)c4)c3)CC2)cs1 [Example 68, N-((1s,4s)-4-(2-(3′-(((3R,5S)-3,5-dimethylpiperazin-1-yl)methyl)-4′-hydroxybiphenyl-3-yloxy)-5-fluoronicotinamido)cyclohexyl)-2-methylthiazole-4-carboxamide] | 0.0251
Cc1cc(CN[C@H]2CC[C@@H](NC(=O)c3cc(F)cnc3Oc3cccc(-c4ccc(O)cc4CN4CCOCC4)c3)CC2)nn1C [Example 3, N-((1s,4s)-4-((1,5-dimethyl-1H-pyrazol-3-yl)methylamino)cyclohexyl)-5-fluoro-2-(4′-hydroxy-2′-(morpholinomethyl)biphenyl-3-yloxy)nicotinamide trifluoroacetate] | 1.26
Cc1cc(C)n2ncc(C(=O)N[C@H]3CC[C@@H](NC(=O)c4cc(F)cnc4Oc4cccc(-c5ccc(CN6CCCN(CCO)CC6)cc5CN5CCSCC5)c4)CC3)c2n1 [Example 182, N-((1s,4s)-4-(5-Fluoro-2-(4′-((4(2-hydroxyethyl)-1,4-diazepan-1-yl)methyl)-2′-(thiomorpholinomethyl)biphenyl-3-yloxy)nicotinamido)cyclohexyl)-5,7-dimethylpyrazolo[1,5-a]pyrimidine-3-carboxamide] | 0.0398
O=C(N[C@H]1CC[C@@H](NC(=O)c2cc(F)cnc2Oc2cccc(-c3ccc(O)cc3CN3CCCOCC3)c2)CC1)c1cn2cc(F)ccc2n1 [Example 13, N-((1s,4s)-4-(2-(2′-((1,4-oxazepan-4-yl)methyl)-4′-hydroxybiphenyl-3-yloxy)-5-fluoronicotinamido)cyclohexyl)-6-fluoroimidazo[1,2-a]pyridine-2-carboxamide] | 0.02
Cc1cc(C(=O)N[C@H]2CC[C@@H](NC(=O)c3cc(F)cnc3Oc3cccc(-c4cccc(CCN5C[C@@H](C)N[C@@H](C)C5)c4)c3)CC2)nn1C [Example 103, N-((1s,4s)-4-(1,5-dimethyl-1H-pyrazole-3-carboxamido)cyclohexyl)-2-(3′-(2-((3S,5R)-3,5-dimethylpiperazin-1-yl)ethyl)biphenyl-3-yloxy)-5-fluoronicotinamide] | 0.0316
Cc1cccc2nc(C(=O)N[C@H]3CC[C@@H](NC(=O)c4cc(F)cnc4Oc4cccc(-c5ccc(CN6C[C@@H](C)N[C@@H](C)C6)cc5)c4)CC3)cn12 [Example 48, N-((1s,4s)-4-(2-(4′-(((3S,5R)-3,5-dimethylpiperazin-1-yl)methyl)biphenyl-3-yloxy)-5-fluoronicotinamido)cyclohexyl)-5-methylimidazo[1,2-a]pyridine-2-carboxamide] | 0.0631
CCc1nc(C(=O)N[C@H]2CC[C@@H](NC(=O)c3cc(F)cnc3Oc3cccc(-c4ccc(CN5C[C@@H](C)N[C@@H](C)C5)cc4)c3)CC2)cs1 [Example 76, N-((1s,4s)-4-(2-(4′-(((3S,5R)-3,5-dimethylpiperazin-1-yl)methyl)biphenyl-3-yloxy)-5-fluoronicotinamido)cyclohexyl)-2-ethylthiazole-4-carboxamide] | 0.0631
C[C@@H]1CN(Cc2ccc(-c3cccc(Oc4ncc(F)cc4C(=O)N[C@H]4CC[C@@H](NC(=O)c5cccc6cccnc56)CC4)c3)c(CN3CCOCC3)c2)C[C@H](C)N1 [Example 146, N-((1s,4s)-4-(2-(4′-(((3S,5R)-3,5-dimethylpiperazin-1-yl)methyl)-2′-(morpholinomethyl)biphenyl-3-yloxy)-5-fluoronicotinamido)cyclohexyl)quinoline-8-carboxamide] | 0.0316
C[C@@H]1CN(Cc2ccc(-c3cccc(Oc4ncc(F)cc4C(=O)N[C@H]4CC[C@@H](NC(=O)c5cn6cc(F)ccc6n5)CC4)c3)cc2)C[C@H](C)N1 [Example 67, N-((1s,4s)-4-(2-(4′-(((3S,5R)-3,5-dimethylpiperazin-1-yl)methyl)biphenyl-3-yloxy)-5-fluoronicotinamido)cyclohexyl)-6-fluoroimidazo[1,2-a]pyridine-2-carboxamide] | 0.1
Cc1nc(C(=O)N[C@H]2CC[C@@H](NC(=O)c3cc(F)cnc3Oc3cccc(-c4cccc(CCCN5CCNCC5)c4)c3)CC2)cs1 [Example 131, N-((1s,4s)-4-(5-fluoro-2-(3′-(3-(piperazin-1-yl)propyl)biphenyl-3-yloxy)nicotinamido)cyclohexyl)-2-methylthiazole-4-carboxamide] | 0.126
Cc1ccc(O)c(CN[C@H]2CC[C@@H](NC(=O)c3cc(F)cnc3Oc3cccc(-c4ccc(O)cc4CN4CCOCC4)c3)CC2)c1 [Example 7, 5-fluoro-2-(4′-hydroxy-2′-(morpholinomethyl)biphenyl-3-yloxy)-N-((1s,4s)-4-(2-hydroxy-5-methylbenzylamino)cyclohexyl)nicotinamide] | 6.31
O=C(N[C@H]1CC[C@@H](NC(=O)c2cc(F)cnc2Oc2cccc(-c3ccc(CCCN4CCNCC4)cc3)c2)CC1)c1cc2n(n1)CCCC2 [Example 118, N-((1s,4s)-4-(5-fluoro-2-(4′-(3-(piperazin-1-yl)propyl)biphenyl-3-yloxy)nicotinamido)cyclohexyl)-4,5,6,7-tetrahydropyrazolo[1,5-a]pyridine-2-carboxamide] | 0.0398
Cc1cccc2nc(C(=O)N[C@H]3CC[C@@H](NC(=O)c4cc(F)cnc4Oc4cccc(-c5ccc(CN6CCCC6)cc5)c4)CC3)cn12 [Example 50, N-((1s,4s)-4-(5-fluoro-2-(4′-(pyrrolidin-1-ylmethyl)biphenyl-3-yloxy)nicotinamido)cyclohexyl)-5-methylimidazo[1,2-a]pyridine-2-carboxamide] | 0.316
Cc1cccc2nc(C(=O)N[C@H]3CC[C@@H](NC(=O)c4cc(F)cnc4Oc4cccc(-c5ccc(CN(C)C)cc5)c4)CC3)cn12 [Example 47, N-((1s,4s)-4-(2-(4′-((dimethylamino)methyl)biphenyl-3-yloxy)-5-fluoronicotinamido)cyclohexyl)-5-methylimidazo[1,2-a]pyridine-2-carboxamide] | 0.794

More lines, now with the values ahead:

IC50 [nM] | Structure (SMILES)
0.0631 | Cc1cccc2nc(C(=O)N[C@H]3CC[C@@H](NC(=O)c4cc(F)cnc4Oc4cccc(-c5ccc(CN6CCC(N7CCCC7)CC6)cc5)c4)CC3)cn12 [Example 109, N-((1s,4s)-4-(5-fluoro-2-(4′-((4-(pyrrolidin-1-yl)piperidin-1-yl)methyl)biphenyl-3-yloxy)nicotinamido)cyclohexyl)-5-methylimidazo[1,2-a]pyridine-2-carboxamide]
0.316 | Cc1nc(C(=O)N[C@H]2CC[C@@H](NC(=O)c3cc(F)cnc3Oc3cccc(-c4ccc(O)cc4CN4CCCCCC4)c3)CC2)cs1 [Example 23, N-((1s,4s)-4-(2-(2′-(azepan-1-ylmethyl)-4′-hydroxybiphenyl-3-yloxy)-5-fluoronicotinamido)cyclohexyl)-2-methylthiazole-4-carboxamide]
0.0501 | Cc1cc(C(=O)N[C@H]2CC[C@@H](NC(=O)c3cc(F)cnc3Oc3cccc(-c4ccc(CN(C)C)cc4CN4CCOCC4)c3)CC2)nn1C [Example 120, N-((1s,4s)-4-(1,5-dimethyl-1H-pyrazole-3-carboxamido)cyclohexyl)-2-(4′-((dimethylamino)methyl)-2′-(morpholinomethyl)biphenyl-3-yloxy)-5-fluoronicotinamide]
0.0316 | Cc1cc(C(=O)N[C@H]2CC[C@@H](NC(=O)c3cc(F)cnc3Oc3cccc(-c4ccc(CCN5CCC(N6CCCC6)CC5)cc4)c3)CC2)nn1C [Example 154, N-((1s,4s)-4-(1,5-dimethyl-1H-pyrazole-3-carboxamido)cyclohexyl)-5-fluoro-2-(4′-(2-(4-(pyrrolidin-1-yl)piperidin-1-yl)ethyl)biphenyl-3-yloxy)nicotinamide]
0.0398 | CC(=O)N1CCN(Cc2cc(O)ccc2-c2cccc(Oc3ncc(F)cc3C(=O)N[C@H]3CC[C@@H](NC(=O)c4csc(C)n4)CC3)c2)CC1 [Example 29, N-((1s,4s)-4-(2-(2′-((4-acetylpiperazin-1-yl)methyl)-4′-hydroxybiphenyl-3-yloxy)-5-fluoronicotinamido)cyclohexyl)-2-methylthiazole-4-carboxamide]
0.0316 | Cc1nc(C(=O)N[C@H]2CC[C@@H](NC(=O)c3cc(F)cnc3Oc3cccc(-c4ccc(O)cc4CN(C)C)c3)CC2)cs1 [Example 9, N-((1s,4s)-4-(2-(2′-((dimethylamino)methyl)-4′-hydroxybiphenyl-3-yloxy)-5-fluoronicotinamido)cyclohexyl)-2-methylthiazole-4-carboxamide]
0.0631 | O=C(N[C@H]1CC[C@@H](NC(=O)c2cc(F)cnc2Oc2cccc(-c3ccc(CCCN4CCNCC4)cc3)c2)CC1)c1csc(CO)n1 [Example 141, N-((1s,4s)-4-(5-fluoro-2-(4′-(3-(piperazin-1-yl)propyl)biphenyl-3-yloxy)nicotinamido)cyclohexyl)-2-(hydroxymethyl)thiazole-4-carboxamide]
0.631 | O=C(N[C@H]1CC[C@@H](NC(=O)c2cc(F)cnc2Oc2cccc(-c3ccc(CNCCCN4CCOCC4)cc3)c2)CC1)c1cn2cc(F)ccc2n1 [Example 115, 6-fluoro-N-((1s,4s)-4-(5-fluoro-2-(4′-((3-morpholinopropylamino)methyl)biphenyl-3-yloxy)nicotinamido)cyclohexyl)imidazo[1,2-a]pyridine-2-carboxamide]
